Measurements published in US8906925B2, “Pyrido[4,3-B]indoles containing rigid moieties” (Medivation Technologies, Inc., priority 2008, dated 2014).

Key:
[1] = target: human recombinant serotonin (5-Hydroxytryptamine) 5-HT7 receptor (Homo sapiens, UniProt P34969); experiment: Serotonin 5-HT7 radioligand binding ([3H]LSD); conditions: read-out: Inhibition of ligand binding, Serotonin 5-HT7 (percent inhibition of specific binding); for inhibition at 1 µM: compound at 1 μM; for inhibition at 0.1 µM: compound at 0.1 μM
Sequence of human recombinant serotonin (5-Hydroxytryptamine) 5-HT7 receptor (P34969 whole entry): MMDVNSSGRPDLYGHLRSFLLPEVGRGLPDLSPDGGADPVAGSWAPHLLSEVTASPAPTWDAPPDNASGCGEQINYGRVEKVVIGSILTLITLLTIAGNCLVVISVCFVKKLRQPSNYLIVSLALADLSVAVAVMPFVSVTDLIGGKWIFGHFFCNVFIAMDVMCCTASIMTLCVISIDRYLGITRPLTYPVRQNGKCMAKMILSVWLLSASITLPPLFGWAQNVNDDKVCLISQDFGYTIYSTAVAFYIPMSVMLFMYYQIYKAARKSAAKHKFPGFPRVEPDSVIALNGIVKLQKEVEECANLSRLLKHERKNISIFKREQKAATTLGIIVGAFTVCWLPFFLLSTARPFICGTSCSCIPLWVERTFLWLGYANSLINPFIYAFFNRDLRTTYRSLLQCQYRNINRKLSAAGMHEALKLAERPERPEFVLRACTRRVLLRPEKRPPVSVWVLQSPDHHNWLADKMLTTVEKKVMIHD
Source text: Receptor proteins were filtered and washed, the filters were then counted to determine [^3H]LSD specifically bound.

[2] = target: T1, human recombinant histamine H2 receptor (Homo sapiens, UniProt P25021); experiment: Histamine H2 radioligand binding ([125I]Aminopotentidine); conditions: read-out: Histamine Binding (1 μM) H2, percent inhibition of specific binding, 1 μM
T1 construct: expressed in transfected cells; host or cells: Chinese hamster ovary (CHO) K1 cells
T1 sequence (P25021 whole entry): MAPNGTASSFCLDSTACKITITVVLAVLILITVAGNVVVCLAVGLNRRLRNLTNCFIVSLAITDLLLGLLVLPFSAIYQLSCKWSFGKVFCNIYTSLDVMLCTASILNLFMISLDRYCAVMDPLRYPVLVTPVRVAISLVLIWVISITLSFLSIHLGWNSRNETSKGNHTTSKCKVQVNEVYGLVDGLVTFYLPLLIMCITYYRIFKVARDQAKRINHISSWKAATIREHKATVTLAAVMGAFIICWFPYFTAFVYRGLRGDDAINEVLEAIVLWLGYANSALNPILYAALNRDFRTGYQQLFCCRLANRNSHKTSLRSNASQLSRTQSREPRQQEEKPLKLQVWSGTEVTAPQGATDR
Method: To evaluate in radioligand binding assays the activity of compounds of the invention, human recombinant histamine H2 receptor expressed in Chinese hamster ovary (CHO) K1 cells (Ruat, M., Proc. Natl. Acad. Sci. USA. 87(5):1658, 1990) in a 50 mM Phosphate buffer, pH 7.4 was used. Compounds of the invention were incubated with 0.1 nM [^125I]Aminopotentidine for 120 min. at 25° C. Non-specific binding was estimated in the presence of 3 μM Tiotidine. Receptor proteins were filtered and washed, the filters were then counted to determine [^125I]Aminopotentidine specifically bound.

[3] = target: T2, human recombinant serotonin (5-Hydroxytryptamine) 5-HT2A receptor (Homo sapiens, UniProt P28223); experiment: Serotonin 5-HT2A radioligand binding ([3H]Ketanserin); conditions: for inhibition at 1 µM: read-out: Inhibition of ligand binding, Serotonin 5-HT2A (percent inhibition of specific binding), compound at 1 μM; for inhibition at 0.1 µM: read-out: Inhibition of ligand binding, Serotonin 5-HT2A (percent inhibition of specific binding), compound at 0.1 μM
T2 construct: expressed in transfected cells; host or cells: Chinese hamster ovary (CHO-K1) cells
T2 sequence (P28223 whole entry): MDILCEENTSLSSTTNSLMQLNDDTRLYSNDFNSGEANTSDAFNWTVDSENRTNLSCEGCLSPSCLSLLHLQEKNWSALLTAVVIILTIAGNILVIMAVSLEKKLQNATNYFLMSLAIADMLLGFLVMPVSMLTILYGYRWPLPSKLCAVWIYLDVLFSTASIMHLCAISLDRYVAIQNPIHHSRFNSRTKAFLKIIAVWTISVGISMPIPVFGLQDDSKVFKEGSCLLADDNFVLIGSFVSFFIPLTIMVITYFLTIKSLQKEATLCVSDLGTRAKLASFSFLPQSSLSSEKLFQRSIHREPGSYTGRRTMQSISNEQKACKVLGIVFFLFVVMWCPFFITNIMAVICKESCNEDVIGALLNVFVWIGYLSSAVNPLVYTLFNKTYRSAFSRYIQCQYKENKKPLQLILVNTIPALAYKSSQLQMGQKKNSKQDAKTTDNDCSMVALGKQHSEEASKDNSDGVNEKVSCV
Method: Compounds of the invention were incubated with 0.5 nM [^3H]Ketanserin for 60 min. at 25° C. Non-specific binding was estimated in the presence of 1 μM Mianserin. Receptor proteins were filtered and washed, the filters were then counted to determine [^3H]Ketanserin specifically bound.

[4] = target: T3, human recombinant serotonin (5-Hydroxytryptamine) 5-HT6 receptor (Homo sapiens, UniProt P50406); experiment: Serotonin 5-HT6 radioligand binding ([3H]LSD); conditions: read-out: Inhibition of ligand binding, Serotonin 5-HT6 (percent inhibition of specific binding); for inhibition at 1 µM: compound at 1 μM; for inhibition at 0.1 µM: compound at 0.1 μM
T3 construct: expressed in transfected cells; host or cells: human HeLa cells
T3 sequence (P50406 whole entry): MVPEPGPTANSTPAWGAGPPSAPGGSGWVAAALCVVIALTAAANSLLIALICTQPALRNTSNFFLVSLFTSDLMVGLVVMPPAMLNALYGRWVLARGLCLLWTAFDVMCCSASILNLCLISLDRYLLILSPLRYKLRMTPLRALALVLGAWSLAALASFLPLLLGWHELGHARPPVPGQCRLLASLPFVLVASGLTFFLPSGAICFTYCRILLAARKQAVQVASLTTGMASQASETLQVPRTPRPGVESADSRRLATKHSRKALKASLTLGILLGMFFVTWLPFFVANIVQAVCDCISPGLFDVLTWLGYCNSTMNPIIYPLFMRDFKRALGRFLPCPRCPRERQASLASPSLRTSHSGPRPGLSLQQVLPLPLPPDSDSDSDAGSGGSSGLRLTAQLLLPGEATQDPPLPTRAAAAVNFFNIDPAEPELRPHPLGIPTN
Method: Compounds of the invention were incubated with 1.5 nM [3H]Lysergic acid diethylamide (LSD) for 120 min. at 37° C. […] Receptor proteins were filtered and washed, the filters were then counted to determine [3H]LSD specifically bound. Compounds were screened at 1 μM or lower, using 1% DMSO as vehicle. Biochemical assay results are presented as the percent inhibition of specific binding in Table 10.

[5] = target: human dopamine D2L receptor (Homo sapiens, UniProt P14416); experiment: Dopamine D2L radioligand binding ([3H]Spiperone); conditions: percent inhibition of specific binding, compound at 1 μM; for inhibition at 1 µM: read-out: Inhibition of ligand binding, Dopamine D2L
Sequence of human dopamine D2L receptor (P14416 whole entry): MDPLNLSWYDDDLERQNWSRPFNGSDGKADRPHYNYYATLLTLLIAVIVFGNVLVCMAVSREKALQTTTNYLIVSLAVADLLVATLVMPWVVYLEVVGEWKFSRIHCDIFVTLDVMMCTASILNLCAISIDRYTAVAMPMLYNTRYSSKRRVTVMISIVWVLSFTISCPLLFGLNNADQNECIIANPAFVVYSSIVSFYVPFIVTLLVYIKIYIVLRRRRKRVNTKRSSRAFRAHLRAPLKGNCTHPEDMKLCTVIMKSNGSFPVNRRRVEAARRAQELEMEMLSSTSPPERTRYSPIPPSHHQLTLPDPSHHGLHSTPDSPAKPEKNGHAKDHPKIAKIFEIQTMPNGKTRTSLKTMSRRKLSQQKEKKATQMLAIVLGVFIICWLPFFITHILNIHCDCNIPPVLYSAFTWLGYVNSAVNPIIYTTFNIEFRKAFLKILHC
Source text: Non-specific binding was estimated in the presence of […] Haloperidol. Receptor proteins were filtered and washed, the filters were then counted to determine [^3H]Spiperone specifically bound. […] Biochemical assay results are presented as the percent inhibition of specific binding in Table 9.

histamine receptor H1 = histamine receptor H1 (Homo sapiens, UniProt P35367); experiment: Histamine H1 radioligand binding ([3H]Pyrilamine); conditions: for inhibition at 1 µM: read-out: Histamine Binding (1 μM) H1, percent inhibition of specific binding, 1 μM
Sequence of histamine receptor H1 (P35367 whole entry): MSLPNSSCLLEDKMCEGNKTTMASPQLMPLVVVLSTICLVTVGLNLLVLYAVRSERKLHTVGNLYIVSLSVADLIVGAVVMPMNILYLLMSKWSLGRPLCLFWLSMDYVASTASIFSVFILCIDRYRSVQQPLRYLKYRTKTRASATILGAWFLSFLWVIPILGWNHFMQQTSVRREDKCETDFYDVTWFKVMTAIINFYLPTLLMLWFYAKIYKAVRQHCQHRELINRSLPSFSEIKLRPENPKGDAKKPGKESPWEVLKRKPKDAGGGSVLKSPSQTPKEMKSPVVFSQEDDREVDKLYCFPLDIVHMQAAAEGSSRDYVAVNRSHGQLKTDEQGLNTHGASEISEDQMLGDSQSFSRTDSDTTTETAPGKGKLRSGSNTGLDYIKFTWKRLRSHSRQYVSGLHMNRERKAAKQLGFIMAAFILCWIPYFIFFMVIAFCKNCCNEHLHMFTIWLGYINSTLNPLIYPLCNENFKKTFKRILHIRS
In short: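 Values are percent inhibition of specific [3H]pyrilamine (1.2 nM) binding with compounds at ≤1 μM (1% DMSO vehicle); 180 min incubation at 25 °C, pH 7.4 Tris buffer, on CHO-expressed human H1 receptor; 1 μM pyrilamine defined nonspecific binding, bound ligand counted after filtration.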

[6] = target: T4, human recombinant serotonin (5-Hydroxytryptamine) 5-HT2C receptor (Homo sapiens, UniProt P28335); experiment: Serotonin 5-HT2C radioligand binding ([3H]Mesulergine); conditions: read-out: Inhibition of ligand binding, Serotonin 5-HT2C (percent inhibition of specific binding); for inhibition at 1 µM: compound at 1 μM; for inhibition at 0.1 µM: compound at 0.1 μM
T4 construct: expressed in transfected cells; host or cells: Chinese hamster ovary (CHO-K1) cells
T4 sequence (P28335 33-458): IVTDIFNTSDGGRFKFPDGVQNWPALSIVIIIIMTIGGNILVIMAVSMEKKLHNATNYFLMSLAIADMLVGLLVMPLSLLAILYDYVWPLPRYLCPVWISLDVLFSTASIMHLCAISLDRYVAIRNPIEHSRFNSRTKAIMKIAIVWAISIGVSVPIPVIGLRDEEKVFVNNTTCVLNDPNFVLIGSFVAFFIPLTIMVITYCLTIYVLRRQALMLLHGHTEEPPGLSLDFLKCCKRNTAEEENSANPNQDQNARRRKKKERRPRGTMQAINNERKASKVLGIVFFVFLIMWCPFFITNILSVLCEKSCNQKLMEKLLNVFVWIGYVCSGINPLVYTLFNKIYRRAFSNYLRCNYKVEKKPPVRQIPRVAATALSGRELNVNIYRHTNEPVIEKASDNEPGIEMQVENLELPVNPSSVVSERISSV
In short: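 Compounds tested at 1 μM or lower (1% DMSO vehicle) for displacement of 1 nM [3H]Mesulergine over 60 min at 25° C. Specific binding determined by filtration counting, with 1 μM Mianserin defining non-specific binding; values are percent inhibition.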

Structure (SMILES) | inhibition at 1 µM [1] | inhibition at 1 µM [2] | inhibition at 1 µM [3] | inhibition at 1 µM [4] | inhibition at 1 µM [5] | inhibition at 1 µM (histamine receptor H1) | inhibition at 1 µM [6] | inhibition at 0.1 µM [1] | inhibition at 0.1 µM [3] | inhibition at 0.1 µM [4] | Inhibition of ligand binding, Dopamine D2L ([5]; 1 µM) | Histamine Binding (1 μM) H1, percent inhibition of specific binding (histamine receptor H1; 1 μM) | inhibition at 0.1 µM [6]
CN1CCc2c(c3cccc(F)c3n2CC(C)(O)c2ccncc2)C1 (stereo not shown) [Compound 185, 1-(6-fluoro-2-methyl-3,4-dihydro-1H-pyrido[4,3-b]indol-5(2H)-yl)-2-(pyridin-4-yl)propan-2-ol] | 41% | 29% | 82% | 26% | -1% | 8% | 83% | – | – | – | – | – | –
C/C(=C/n1c2c(c3cc(Cl)ccc31)CN(C)CC2)c1ccccc1Cl [Compound 237, (Z)-8-chloro-5-(2-(2-chlorophenyl)prop-1-enyl)-2-methyl-2,3,4,5-tetrahydro-1H-pyrido[4,3-b]indole] | 100% | 95% | 101% | 101% | 45% | 88% | 98% | – | – | – | – | – | –
C/C(=C\n1c2c(c3cc(Cl)ccc31)CN(C)CC2)c1cccnc1 [Compound 86, (E)-8-chloro-2,3,4,5-tetrahydro-2-methyl-5-(2-(pyridin-3-yl)prop-1-enyl)-1H-pyrido[4,3-b]indole] | 93% | 54% | 95% | 77% | 40% | 72% | 94% | – | – | – | – | – | –
C/C(=C\n1c2c(c3cc(C)ccc31)CN(C)CC2)c1ccc(F)c(F)c1 [Compound 230, (E)-5-(2-(3,4-difluorophenyl)prop-1-enyl)-2,8-dimethyl-2,3,4,5-tetrahydro-1H-pyrido[4,3-b]indole] | 93% | 96% | 98% | 97% | 44% | 35% | 100% | – | – | – | – | – | –
CN1CCc2c(c3c(Cl)c(Cl)ccc3n2CC(C)(O)c2ccncc2)C1 (stereo not shown) [Compound 190, 1-(8,9-dichloro-2-methyl-3,4-dihydro-1H-pyrido[4,3-b]indol-5(2H)-yl)-2-(pyridin-4-yl)propan-2-ol] | 47% | 9% | 71% | 31% | -15% | -11% | 52% | – | – | – | – | – | –
Cc1ccc2c(c1)c1c(n2CC(C)(O)c2ccc(O)cc2)CCN(C)C1 (stereo not shown) [Compound 187, 4-(1-(2,8-dimethyl-3,4-dihydro-1H-pyrido[4,3-b]indol-5(2H)-yl)-2-hydroxypropan-2-yl)phenol] | 94% | 57% | 102% | 98% | 35% | 36% | 99% | – | – | – | – | – | –
C/C(=C\n1c2c(c3ccc(F)cc31)CN(C)CC2)c1ccc(F)cc1 [Compound 227, (E)-7-fluoro-5-(2-(4-fluorophenyl)prop-1-enyl)-2-methyl-2,3,4,5-tetrahydro-1H-pyrido[4,3-b]indole] | 90% | 101% | 103% | 107% | 97% | 52% | 103% | – | – | – | – | – | –
COc1ccc2c(c1)c1c(n2CC(C)(O)c2ccncc2)CCN(C)C1 (stereo not shown) [Compound 188, 1-(8-methoxy-2-methyl-3,4-dihydro-1H-pyrido[4,3-b]indol-5(2H)-yl)-2-(pyridin-4-yl)propan-2-ol] | 45% | 13% | 50% | 9% | -5% | 8% | 66% | – | – | – | – | – | –
C/C(=C/n1c2c(c3cc(Cl)ccc31)CN(C)CC2)c1cc(F)c(F)cc1Cl [Compound 240, (Z)-8-chloro-5-(2-(2-chloro-4,5-difluorophenyl)prop-1-enyl)-2-methyl-2,3,4,5-tetrahydro-1H-pyrido[4,3-b]indole] | 99% | 99% | 99% | 104% | 34% | 95% | 99% | – | – | – | – | – | –
C/C(=C\n1c2c(c3cc(F)ccc31)CN(C)CC2)c1ccncc1 [Compound 216, (E)-8-fluoro-2-methyl-5-(2-(pyridin-4-yl)prop-1-enyl)-2,3,4,5-tetrahydro-1H-pyrido[4,3-b]indole] | 79% | 61% | 99% | 104% | 97% | 47% | 94% | 66% | 98% | 100% | 98% | 49% | 83%
Cc1ccc2c(c1)c1c(n2/C=C(\c2ccncc2)C(C)C)CCN(C)C1 [Compound 264, (Z)-2,8-dimethyl-5-(3-methyl-2-(pyridin-4-yl)but-1-enyl)-2,3,4,5-tetrahydro-1H-pyrido[4,3-b]indole] | – | – | – | – | 49% | 24% | – | 51% | 99% | 89% | – | – | 94%
C/C(=C\n1c2c(c3cc(OC(F)(F)F)ccc31)CN(C)CC2)c1ccncc1 [Compound 263, (E)-2-methyl-5-(2-(pyridin-4-yl)prop-1-enyl)-8-(trifluoromethoxy)-2,3,4,5-tetrahydro-1H-pyrido[4,3-b]indole] | – | – | – | – | 89% | 8% | – | 15% | 64% | 99% | – | – | 18%
C/C(=C\n1c2c(c3cc(C)ccc31)CN(C)C(C)C2)c1ccncc1 (stereo not shown) [Compound 257, (E)-2,3,8-trimethyl-5-(2-(pyridin-4-yl)prop-1-enyl)-2,3,4,5-tetrahydro-1H-pyrido[4,3-b]indole] | – | – | – | – | 72% | 18% | – | 75% | 94% | 71% | – | – | 94%
CC/C(=C/n1c2c(c3cc(C)ccc31)CN(C)CC2)c1ccncc1 [Compound 281, (Z)-2,8-dimethyl-5-(2-(pyridin-4-yl)but-1-enyl)-2,3,4,5-tetrahydro-1H-pyrido[4,3-b]indole] | – | – | – | – | 51% | 42% | – | 93% | 103% | 78% | – | – | 96%
